Test results as given in paper PMC11274128, “Modification and Synergistic Studies of a Novel Frog Antimicrobial Peptide against Pseudomonas aeruginosa Biofilms” (Antibiotics, 2024).
Converted amounts (≈) assume the structure as drawn. Read-outs that look alike come from different tables or passages of the source.

Key:
[1] = system: S. aureus ATCC 6538 biofilm; format: cell-based, Staphylococcus aureus; details: for MBIC: lowest concentration inhibiting at least 90% of biofilm formation; for MBEC: minimum concentration eradicating at least 99% of the biofilm
Source text: (§1) The minimum bactericidal concentration (MBC) is defined as the lowest antibiotic concentration that kills 99.9% of the inoculum. The minimum biofilm inhibitory concentration (MBIC) is the lowest concentration that inhibits at least 90% of the formation of biofilm. The minimum biofilm eradication concentration (MBEC) is the minimum concentration that can eradicate at least 99% of the biofilm. In addition to the eight microorganisms described previously, this experiment was also applied to P. aeruginosa (ATCC 27853, ATCC BAA-2108, P. aeruginosa 01, P. aeruginosa 14).

A. baumannii (BAA 747) = assay: microbe, parasite or virus in culture; format: cell-based, Acinetobacter baumannii; details: Acinetobacter baumannii, BAA747
Source text: (§2) The minimum inhibitory concentration (MIC) is the minimum concentration of an antimicrobial agent that prevents the visible growth of a bacterium or bacteria. The MIC is an important piece of data for research on new antimicrobial agents and helps in the effective selection of antibiotics to improve the success of treatment. The minimum bactericidal concentration (MBC) is defined as the lowest antibiotic concentration that kills 99.9% of the inoculum. This study mainly contained eight different microorganisms, which were Staphylococcus aureus (ATCC 6538), methicillin-resistant Staphylococcus aureus (NCTC 12493), Enterococcus faecalis (NCTC 12697), Escherichia coli (ATCC 8739), Klebsiella pneumoniae (ATCC 43816), Pseudomonas aeruginosa (ATCC CRM 9027), Acinetobacter baumannii (BAA 747), and Candida albicans (ATCC 10231). The bacteria were incubated in the compatible medium at 37 °C overnight.

P. aeruginosa 01 biofilm = format: cell-based, Pseudomonas aeruginosa; details: for MBIC: lowest concentration inhibiting at least 90% of biofilm formation; for MBEC: minimum concentration eradicating at least 99% of the biofilm
Source text: as §1

[2] = system: P. aeruginosa ATCC CRM 9027 biofilm; format: cell-based, Pseudomonas aeruginosa; details: for MBIC: lowest concentration inhibiting at least 90% of biofilm formation; for MBEC: minimum concentration eradicating at least 99% of the biofilm
Source text: as §1

P. aeruginosa 14 biofilm = format: cell-based, Pseudomonas aeruginosa; details: for MBIC: lowest concentration inhibiting at least 90% of biofilm formation; for MBEC: minimum concentration eradicating at least 99% of the biofilm
Source text: as §1

[3] = system: P. aeruginosa ATCC 27853 biofilm; format: cell-based, Pseudomonas aeruginosa; details: for MBIC: lowest concentration inhibiting at least 90% of biofilm formation; for MBEC: minimum concentration eradicating at least 99% of the biofilm
Source text: as §1

[4] = system: P. aeruginosa ATCC BAA-2108 biofilm; format: cell-based, Pseudomonas aeruginosa; details: for MBIC: lowest concentration inhibiting at least 90% of biofilm formation; for MBEC: minimum concentration eradicating at least 99% of the biofilm
Source text: as §1

[5] = system: P. aeruginosa (ATCC CRM 9027); assay: microbe, parasite or virus in culture; format: cell-based, Pseudomonas aeruginosa; details: Pseudomonas aeruginosa
Source text: as §2

[6] = system: K. pneumoniae (ATCC 43816); assay: microbe, parasite or virus in culture; format: cell-based, Klebsiella pneumoniae; details: Klebsiella pneumoniae, ATCC43816
Source text: as §2

E. faecalis (NCTC 12697) = assay: microbe, parasite or virus in culture; format: cell-based, Enterococcus faecalis; details: Enterococcus faecalis, NCTC12697
Source text: as §2

S. aureus (ATCC 6538) = assay: microbe, parasite or virus in culture; format: cell-based, Staphylococcus aureus; details: Staphylococcus aureus, ATCC6538
Source text: as §2

[7] = system: E. faecalis NCTC 12697 biofilm; format: cell-based, Enterococcus faecalis; details: for MBIC: lowest concentration inhibiting at least 90% of biofilm formation; for MBEC: minimum concentration eradicating at least 99% of the biofilm
Source text: as §1

E. coli (ATCC 8739) = assay: microbe, parasite or virus in culture; format: cell-based, Escherichia coli; details: Escherichia coli, ATCC8739
Source text: as §2

MRSA (NCTC 12493) = assay: microbe, parasite or virus in culture; format: cell-based, methicillin-resistant Staphylococcus aureus; details: Staphylococcus aureus
Source text: as §2

[8] = system: A. baumannii BAA 747 biofilm; format: cell-based, Acinetobacter baumannii; details: for MBIC: lowest concentration inhibiting at least 90% of biofilm formation; for MBEC: minimum concentration eradicating at least 99% of the biofilm
Source text: as §1

MRSA NCTC 12493 biofilm = format: cell-based, methicillin-resistant Staphylococcus aureus; details: for MBIC: lowest concentration inhibiting at least 90% of biofilm formation; for MBEC: minimum concentration eradicating at least 99% of the biofilm
Source text: as §1

[9] = system: K. pneumoniae ATCC 43816 biofilm; format: cell-based, Klebsiella pneumoniae; details: for MBIC: lowest concentration inhibiting at least 90% of biofilm formation; for MBEC: minimum concentration eradicating at least 99% of the biofilm
Source text: as §1

[10] = planktonic A. baumannii BAA 747, 37 °C, nine repeats of three independent experiments, read-out: MIC
[11] = planktonic A. baumannii BAA 747, lowest concentration killing 99.9% of inoculum, read-out: MBC
[12] = planktonic P. aeruginosa ATCC CRM 9027, 37 °C, nine repeats of three independent experiments, read-out: MIC
[13] = planktonic P. aeruginosa ATCC CRM 9027, lowest concentration killing 99.9% of inoculum, read-out: MBC
[14] = planktonic K. pneumoniae ATCC 43816, 37 °C, nine repeats of three independent experiments, read-out: MIC
[15] = planktonic K. pneumoniae ATCC 43816, lowest concentration killing 99.9% of inoculum, read-out: MBC
[16] = planktonic E. faecalis NCTC 12697, 37 °C, nine repeats of three independent experiments, read-out: MIC
[17] = planktonic E. faecalis NCTC 12697, lowest concentration killing 99.9% of inoculum, read-out: MBC
[18] = planktonic S. aureus ATCC 6538, 37 °C, nine repeats of three independent experiments, read-out: MIC
[19] = planktonic S. aureus ATCC 6538, lowest concentration killing 99.9% of inoculum, read-out: MBC
[20] = planktonic E. coli ATCC 8739, 37 °C, nine repeats of three independent experiments, read-out: MIC
[21] = planktonic E. coli ATCC 8739, lowest concentration killing 99.9% of inoculum, read-out: MBC
[22] = planktonic MRSA NCTC 12493, 37 °C, nine repeats of three independent experiments, read-out: MIC
[23] = planktonic MRSA NCTC 12493, lowest concentration killing 99.9% of inoculum, read-out: MBC

Row | MIC (A. baumannii (BAA 747); [10]) [µM] | MIC [5, 12] [µM] | MIC [6, 14] [µM] | MIC (E. faecalis (NCTC 12697); [16]) [µM] | MIC (S. aureus (ATCC 6538); [18]) [µM] | MIC (E. coli (ATCC 8739); [20]) [µM] | MIC (MRSA (NCTC 12493); [22]) [µM] | SMILES | MBIC [1] [µM] | MBEC [1] [µM] | MBC (A. baumannii (BAA 747); [11]) [µM] | MBIC (P. aeruginosa 01 biofilm) [µM] | MBEC (P. aeruginosa 01 biofilm) [µM] | MBIC [2] | MBEC [2] | MBC [5, 13] [µM] | MBC [6, 15] [µM] | MBC (E. faecalis (NCTC 12697); [17]) [µM] | MBC (S. aureus (ATCC 6538); [19]) [µM] | MBC (E. coli (ATCC 8739); [21]) [µM] | MBC (MRSA (NCTC 12493); [23]) [µM] | further results
1 | 1 (≈ 0.481 µg/mL) | 2 (≈ 0.961 µg/mL) | 128 (≈ 61.5 µg/mL) | 128 (≈ 61.5 µg/mL) | 32 (≈ 15.4 µg/mL) | 8 (≈ 3.84 µg/mL) | 16 (≈ 7.69 µg/mL) | CO/N=C(\C(=O)N[C@@H]1C(=O)N2C(C(=O)[O-])=C(C[N+]3(C)CCCC3)CS[C@H]12)c1csc(N)n1 [Cefepime, reference compound] | 4 | 8 | 2 (≈ 0.961 µg/mL) | 4 | > 128 | >128/>128 µM | >128/>128 µM | 2 (≈ 0.961 µg/mL) | > 128 | > 128 | 64 (≈ 30.8 µg/mL) | 16 (≈ 7.69 µg/mL) | 32 (≈ 15.4 µg/mL) | MBIC (P. aeruginosa 14 biofilm): 8 µM; MBEC (P. aeruginosa 14 biofilm): > 128 µM; MBIC [3]: 2 µM; MBEC [3]: 4 µM; MBIC [4]: 64 µM; MBEC [4]: > 128 µM; MBIC [7]: >128/>128 µM; MBEC [7]: >128/>128 µM; MBIC [8]: 128/>128 µM; MBEC [8]: 128/>128 µM; MBIC (MRSA NCTC 12493 biofilm): >128/>128 µM; MBEC (MRSA NCTC 12493 biofilm): >128/>128 µM; MBIC [9]: >128/>128 µM; MBEC [9]: >128/>128 µM
2 | > 128 | 0.25 (≈ 0.119 µg/mL) | 1 (≈ 0.478 µg/mL) | 16 (≈ 7.64 µg/mL) | 2 (≈ 0.955 µg/mL) | 2 (≈ 0.955 µg/mL) | 1 (≈ 0.478 µg/mL) | CNC(C)C1CCC(N)C(OC2C(N)CC(N)C(OC3OCC(C)(O)C(NC)C3O)C2O)O1 (stereo not drawn) [Gentamicin, reference compound] | 8 | 16 | > 128 | 4 | 8 | 2 µM | 4 µM | 0.5 (≈ 0.239 µg/mL) | 1 (≈ 0.478 µg/mL) | 32 (≈ 15.3 µg/mL) | 2 (≈ 0.955 µg/mL) | 4 (≈ 1.91 µg/mL) | 2 (≈ 0.955 µg/mL) | MBIC (P. aeruginosa 14 biofilm): 2 µM; MBEC (P. aeruginosa 14 biofilm): 4 µM; MBIC [3]: 4 µM; MBEC [3]: > 128 µM; MBIC [4]: 16 µM; MBEC [4]: 128 µM; MBIC [7]: >128/>128 µM; MBEC [7]: >128/>128 µM; MBIC [8]: 8 µM; MBEC [8]: 16 µM; MBIC (MRSA NCTC 12493 biofilm): 2 µM; MBEC (MRSA NCTC 12493 biofilm): > 128 µM; MBIC [9]: 32/32 µM; MBEC [9]: 32/32 µM
3 | 1 (≈ 0.361 µg/mL) | 2 (≈ 0.723 µg/mL) | > 128 | 2 (≈ 0.723 µg/mL) | 0.5 (≈ 0.181 µg/mL) | 0.25 (≈ 0.0903 µg/mL) | 0.25 (≈ 0.0903 µg/mL) | C[C@H]1COc2c(N3CCN(C)CC3)c(F)cc3c(=O)c(C(=O)O)cn1c23 [Levofloxacin, reference compound] | – | – | 1 (≈ 0.361 µg/mL) | – | – | – | – | 2 (≈ 0.723 µg/mL) | > 128 | 8 (≈ 2.89 µg/mL) | 0.5 (≈ 0.181 µg/mL) | 0.5 (≈ 0.181 µg/mL) | 0.5 (≈ 0.181 µg/mL) | –
4 | – | – | – | – | – | – | – | CN[C@H](CC(C)C)C(=O)N[C@H]1C(=O)N[C@@H](CC(N)=O)C(=O)N[C@H]2C(=O)N[C@H]3C(=O)N[C@H](C(=O)N[C@H](C(=O)O)c4cc(O)cc(O)c4-c4cc3ccc4O)[C@H](O)c3ccc(c(Cl)c3)Oc3cc2cc(c3O[C@@H]2O[C@H](CO)[C@@H](O)[C@H](O)[C@H]2O[C@H]2C[C@](C)(N)[C@H](O)[C@H](C)O2)Oc2ccc(cc2Cl)[C@H]1O [Vancomycin, reference compound] | – | – | – | – | – | – | – | – | – | – | – | – | – | MBC (A. baumannii (BAA 747)): > 128 µM; MIC (A. baumannii (BAA 747)): > 128 µM; MBC [5]: > 128 µM; MIC [5]: > 128 µM; MBC [6]: > 128 µM; MIC [6]: > 128 µM; MBC (E. faecalis (NCTC 12697)): > 128 µM; MIC (E. faecalis (NCTC 12697)): 32 µM (≈ 46.4 µg/mL); MBC (S. aureus (ATCC 6538)): 64 µM (≈ 92.8 µg/mL); MIC (S. aureus (ATCC 6538)): 8 µM (≈ 11.6 µg/mL); MBC (E. coli (ATCC 8739)): > 128 µM; MIC (E. coli (ATCC 8739)): 32 µM (≈ 46.4 µg/mL); MBC (MRSA (NCTC 12493)): 8 µM (≈ 11.6 µg/mL); MIC (MRSA (NCTC 12493)): 4 µM (≈ 5.8 µg/mL)
